Test results from patent US8211886B2, “Thiadiazinone derivatives” (Merck Patent Gesellschaft mit beschrankter Haftung, priority 2007, dated 2012).

Target: T1, Met kinase (Homo sapiens, UniProt P08581)
T1 construct: 6His (N); purchased Upstate 14-526; host or cells: Sf21 insect cells (S. frugiperda), baculovirus
Assay: Met kinase inhibition (enzyme assay), flashplate method
Format: biochemical
Conditions: 33P-ATP, substrate pAGLT, 3 hrs at room temperature
From the text: According to the manufacturer's data (Met, active, upstate, catalogue No. 14-526), Met kinase is expressed for the purposes of protein production in insect cells (Sf21; S. frugiperda) and subsequent affinity-chromatographic purification as “N-terminal 6His-tagged” recombinant human protein in a baculovirus expression vector.
Flashplate Method (Met Kinase)
The test plates used are 96-well Flashplate^R microtitre plates from Perkin Elmer (Cat. No. SMP200). The components of the kinase reaction described below are pipetted into the assay plate. The Met kinase and the substrate poly Ala-Glu-Lys-Tyr, (pAGLT, 6:2:5:1), are incubated for 3 hrs at room temperature with radioactively labelled ^33P-ATP in the presence and absence of test substances in a total volume of 100 μl. The reaction is terminated using 150 μl of a 60 mM EDTA solution. After incubation for a further 30 min at room temperature, the supernatants are filtered off with suction, and the wells are washed three times with 200 μl of 0.9% NaCl solution each time. The measurement of the bound radioactivity is carried out by means of a scintillation measuring instrument (Topcount NXT, Perkin-Elmer).
The full value used is the inhibitor-free kinase reaction. This should be approximately in the range 6000-9000 cpm. The pharmacological zero value used is staurosporin in a final concentration of 0.1 mM. The inhibitory values (IC50) are determined using the RS1_MTS program.
Kinase reaction conditions per well: • 30 μl of assay buffer • 10 μl of substance to be tested in assay buffer with 10% of DMSO • 10 μl of ATP (final concentration 1 μM cold, 0.35 μCi of ^33P-ATP) • 50 μl of Met kinase/substrate mixture in assay buffer; • (10 ng of enzyme/well, 50 ng of pAGLT/well)
Solutions used: • Assay buffer: • 50 mM HEPES • 3 mM magnesium chloride • 3 μM sodium orthovanadate • 3 mM manganese(II) chloride • 1 mM dithiothreitol (DTT) • pH=7.5 (to be set using sodium hydroxide) • Stop solution: • 60 mM Titriplex III (EDTA) • ^33P-ATP: Perkin-Elmer; • Met kinase: Upstate, Cat. No. 14-526, Stock 1 μg/10 μl; spec. activity 954 U/mg; • Poly-Ala-Glu-Lys-Tyr, 6:2:5:1: Sigma Cat. No. P1152 In-vivo Tests (FIG. 1/1)

T1 sequence (P08581 25-1390): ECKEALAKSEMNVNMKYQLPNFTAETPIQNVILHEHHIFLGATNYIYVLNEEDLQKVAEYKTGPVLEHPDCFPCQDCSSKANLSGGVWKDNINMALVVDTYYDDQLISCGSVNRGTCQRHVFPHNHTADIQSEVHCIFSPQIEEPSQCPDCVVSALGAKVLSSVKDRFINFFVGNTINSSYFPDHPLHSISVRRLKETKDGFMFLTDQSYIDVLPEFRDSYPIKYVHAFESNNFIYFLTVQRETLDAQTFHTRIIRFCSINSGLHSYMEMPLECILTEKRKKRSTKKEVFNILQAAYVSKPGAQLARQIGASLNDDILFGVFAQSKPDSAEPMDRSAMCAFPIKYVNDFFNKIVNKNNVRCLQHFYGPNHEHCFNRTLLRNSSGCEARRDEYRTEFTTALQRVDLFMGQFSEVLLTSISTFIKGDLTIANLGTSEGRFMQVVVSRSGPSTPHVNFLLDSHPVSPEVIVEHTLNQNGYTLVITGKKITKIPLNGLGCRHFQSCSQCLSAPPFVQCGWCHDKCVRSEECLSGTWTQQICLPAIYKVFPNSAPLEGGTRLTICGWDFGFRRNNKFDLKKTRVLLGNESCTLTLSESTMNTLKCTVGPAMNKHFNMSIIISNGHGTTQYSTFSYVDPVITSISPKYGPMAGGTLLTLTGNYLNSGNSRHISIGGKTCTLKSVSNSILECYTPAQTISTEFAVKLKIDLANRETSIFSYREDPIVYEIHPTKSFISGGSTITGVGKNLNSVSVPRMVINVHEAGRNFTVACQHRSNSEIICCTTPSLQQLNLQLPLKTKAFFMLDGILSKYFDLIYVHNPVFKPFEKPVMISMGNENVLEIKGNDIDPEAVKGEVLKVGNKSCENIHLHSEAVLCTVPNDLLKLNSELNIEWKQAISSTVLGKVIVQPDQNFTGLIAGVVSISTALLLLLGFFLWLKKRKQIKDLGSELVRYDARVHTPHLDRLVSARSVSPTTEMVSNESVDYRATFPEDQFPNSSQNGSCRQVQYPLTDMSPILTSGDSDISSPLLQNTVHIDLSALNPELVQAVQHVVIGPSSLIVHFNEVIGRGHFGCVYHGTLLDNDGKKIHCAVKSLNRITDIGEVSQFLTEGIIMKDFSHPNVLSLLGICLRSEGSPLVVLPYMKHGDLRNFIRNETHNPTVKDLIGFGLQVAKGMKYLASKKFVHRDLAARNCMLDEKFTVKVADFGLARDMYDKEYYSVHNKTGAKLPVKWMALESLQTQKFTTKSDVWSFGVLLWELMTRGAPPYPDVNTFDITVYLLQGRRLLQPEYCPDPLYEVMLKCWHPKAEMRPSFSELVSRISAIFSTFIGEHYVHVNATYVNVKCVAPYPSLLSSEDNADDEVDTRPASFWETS

**Q.** Which IC50 does the source give for `Cc1cnc(-c2cccc(CN3N=C(c4nccs4)CSC3=O)c2)nc1` [Compound A1, 3-[3-(5-methylpyrimidin-2-yl)benzyl]-5-thiazol-2-yl-3,6-dihydro-1,3,4-thiadiazin-2-one] here?
**A.** 10 to 1000 nM

**Q.** For `CN(C)/C=N/c1cnc(-c2cccc(CN3N=C(c4nccs4)CSC3=O)c2)nc1` [Compound A2, N,N-Dimethyl-N′-{2-[3-(2-oxo-5-thiazol-2-yl-6H-1,3,4-thiadiazin-3-ylmethyl)phenyl]pyrimidin-5-yl}formamidine], which IC50 is on record?
**A.** 10 to 1000 nM

**Q.** Which IC50 does the source give for `Cc1nc(-c2cccc(CN3N=C(c4nccs4)CSC3=O)c2)no1` [Compound A3, 3-[3-(5-Methyl-1,2,4-oxadiazol-3-yl)benzyl]-5-thiazol-2-yl-3,6-dihydro-1,3,4-thiadiazin-2-one] here?
**A.** 1000 to 10000 nM

**Q.** `Nc1cnc(-c2cccc(CN3N=C(c4cc(F)cc(F)c4)CSC3=O)c2)nc1` [Compound A4, 3-[3-(5-aminopyrimidin-2-yl)benzyl]-5-(3,5-difluorophenyl)-3,6-dihydro-1,3,4-thiadiazin-2-one] was tested. Which IC50 did it give?
**A.** 10 to 1000 nM

**Q.** For `COc1ccc(C2=NN(Cc3cccc(-c4ncc(N)cn4)c3)C(=O)SC2)cc1OC` [Compound A5, 3-[3-(5-Aminopyrimidin-2-yl)benzyl]-5-(3,4-dimethoxyphenyl)-3,6-dihydro-1,3,4-thiadiazin-2-one], which IC50 is on record?
**A.** 10 to 1000 nM

**Q.** For `N#Cc1ccc(C2=NN(Cc3cccc(-c4ncc(N)cn4)c3)C(=O)SC2)cc1` [Compound A6, 4-{3-[3-(5-Aminopyrimidin-2-yl)benzyl]-2-oxo-3,6-dihydro-2H-1,3,4-thiadiazin-5-yl}benzonitrile], which IC50 is on record?
**A.** 10 to 1000 nM

**Q.** Which IC50 does the source give for `CN(C)CCCOc1cnc(-c2cccc(CN3N=C(c4nccs4)CSC3=O)c2)nc1` [Compound A7, 3-{3-[5-(3-Dimethylaminopropoxy)pyrimidin-2-yl]benzyl}-5-thiazol-2-yl-3,6-dihydro-1,3,4-thiadiazin-2-one] here?
**A.** 10 to 1000 nM

**Q.** Which IC50 does the source give for `CN(C)CCCOc1cnc(-c2cccc(CN3N=C(c4cc(F)cc(F)c4)CSC3=O)c2)nc1` [Compound A8, 5-(3,5-Difluorophenyl)-3-{3-[5-(3-dimethylamino-propoxy)pyrimidin-2-yl]benzyl}-3,6-dihydro-1,3,4-thiadiazin-2-one] here?
**A.** 10 to 1000 nM

**Q.** How did the IC50 turn out when `CN(C)CCCOc1cnc(-c2cccc(CN3N=C(c4ccc(C#N)cc4)CSC3=O)c2)nc1` [Compound A9, 4-(3-{3-[5-(3-Dimethylaminopropoxy)pyrimidin-2-yl]-benzyl}-2-oxo-3,6-dihydro-2H-1,3,4-thiadiazin-5-yl)-benzonitrile] was run?
**A.** 10 to 1000 nM

**Q.** With `Nc1cnc(-c2cccc(CN3N=C(c4nccs4)CSC3=O)c2)nc1` [Compound A10, 3-[3-(5-Aminopyrimidin-2-yl)benzyl]-5-thiazol-2-yl-3,6-dihydro-1,3,4-thiadiazin-2-one] as the compound, how does the IC50 read?
**A.** 10 to 1000 nM
